The text below walks through data of patent US11090304B2 (Amgen Inc., priority 2018, dated 2021).

In experiment [1] the test system is Phosphorylation of ERK1/2 in MIA PaCa-2 cells. Put plainly: Phospho-ERK1/2 MSD assay in MIA PaCa-2 cells. It counts as cell-based. The conditions noted are these: Homo sapiens, MIA PaCa-2, 2 h, read-out: p-ERK IC50 (2 h; MIA PaCa-2), 2 h compound treatment. The procedure, abridged: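 IC50 comes from a 4-parameter logistic fit of MSD phospho-ERK1/2 signal in lysates. Before lysis, MIA PaCa-2 or A549 cells were exposed to titrated compound for 2 or 4 h at 37 °C, followed by a 10 min 10 ng/mL EGF stimulus.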

In experiment [2] the target is GDP-bound KRAS protein (aa 1-169), containing both G12C and C118A amino acid substitutions (Homo sapiens, UniProt P01116, C118A/G12C). The experiment in a line: Coupled nucleotide exchange assay (SOS-mediated, AlphaScreen). It counts as biochemical. The following applies: 5 min compound pre-incubation. In general terms: Alpha assays give light when donor and acceptor beads are brought close together.

SMILES strings stand for the structures. pIC50: −log10 of the molar value.

Chain of GDP-bound KRAS protein (aa 1-169), containing both G12C and C118A amino acid substitutions (P01116 1-169 isoform P01116-2 G12C/C118A): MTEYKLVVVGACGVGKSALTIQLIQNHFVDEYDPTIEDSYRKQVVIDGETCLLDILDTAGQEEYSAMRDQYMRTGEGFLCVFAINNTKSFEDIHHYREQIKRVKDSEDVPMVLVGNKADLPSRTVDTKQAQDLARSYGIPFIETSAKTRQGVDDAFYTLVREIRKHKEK

In general, pIC50 refers to the negative decadic logarithm of the IC50, by convention in mol/L. Turning to `C=CC(=O)N1CCN(c2nc(=O)n(-c3c(C)ccnc3CC)c3nc(-c4c(O)cccc4F)c(Cl)cc23)[C@@H](C)C1` [Example 55-10, 6-chloro-1-(2-ethyl-4-methyl-3-pyridinyl)-7-(2-fluoro-6-hydroxyphenyl)-4-((2S)-2-methyl-4-(2-propenoyl)-1-piperazinyl)pyrido[2,3-d]pyrimidin-2(1H)-one], the negative-log IC50 (pIC50) in experiment [1] was 6.81. Further, the “Coupled exchange IC50 (5 min)” value in experiment [2] is 0.123 | nda μM.

Take `C=CC(=O)N1CCN(c2nc(=O)n(-c3c(C)noc3C(C)C)c3nc(-c4ccccc4F)c(Cl)cc23)[C@@H](C)C1` [Example 55-11, 6-chloro-7-(2-fluoropheny)-1-(3-methyl-5-(2-propanyl)-1,2-oxazol-4-yl)-4-((2S)-2-methyl-4-(2-propenoyl)-1-piperazinyl)pyrido[2,3-d]pyrimidin-2(1H)-one]: in experiment [1], the negative logarithm of the IC50 (pIC50) was 6.63. For the same molecule, the “Coupled exchange IC50 (5 min)” value in experiment [2] is 0.309 | nda μM.

On to `C=CC(=O)N1CCN(c2nc(=O)n(-c3c(C)noc3C(C)C)c3nc(-c4ccc(F)cc4F)c(Cl)cc23)[C@@H](C)C1` [Example 55-12, 6-chloro-7-(2,4-difuorophenyl)-1-(3-methyl-5-(2-propanyl)-1,2-oxazol-4-yl)-4-((2S)-2-methyl-4-(2-propenoyl)-1-piperazinyl)pyrido[2,3-d]pyrimidin-2(1H)-one], for which, in experiment [1], the pIC50 was 6.11. For the same molecule, the “Coupled exchange IC50 (5 min)” value in experiment [2] is reported as 0.583 | nda μM.

As to `C=CC(=O)N1CCN(c2nc(=O)n(-c3c(C)ncnc3C(C)C)c3nc(-c4ccccc4F)c(Cl)cc23)[C@@H](C)C1` [Example 55-13, 6-chloro-7-(2-fluorophenyl)-1-(4-methyl-6-(2-propanyl)-5-pyrimidinyl)-4-((2S)-2-methyl-4-(2-propenoyl)-1-piperazinyl)pyrido[2,3-d]pyrimidin-2(1H)-one], the negative logarithm of the IC50 (pIC50) in experiment [1] is 6.75. For the same molecule, the “Coupled exchange IC50 (5 min)” value in experiment [2] is recorded as 0.191 | nda μM.

`C=CC(=O)N1CCN(c2nc(=O)n(-c3c(C)cccc3C3CC3)c3nc(-c4c(O)cccc4F)c(Cl)cc23)[C@@H](C)C1` [Example 55-15, 6-chloro-1-(2-cyclopropyl-6-methylphenyl)-7-(2-fluoro-6-hydroxyphenyl)-4-((2S)-2-methyl-4-(2-propenoyl)-1-piperazinyl)pyrido[2,3-d]pyrimidin-2(1H)-one]: the negative-log IC50 (pIC50) in experiment [1] is 7.04. The “Coupled exchange IC50 (5 min)” value in experiment [2] was 0.055 | nda μM.

As to `C=CC(=O)N1CCN(c2nc(=O)n(-c3c(C)cc(N(C)C)cc3C(C)C)c3nc(-c4ccccc4F)c(Cl)cc23)[C@@H](C)C1` [Example 55-16, 6-chloro-1-(4-(dimethylamino)-2-methyl-6-(2-propanyl)phenyl)-7-(2-fluorophenyl)-4-((2S)-2-methyl-4-(2-propenoyl)-1-piperazinyl)pyrido[2,3-d]pyrimidin-2(1H)-one], the pIC50 in experiment [1] was 6.70. Further, the “Coupled exchange IC50 (5 min)” value in experiment [2] is recorded as 0.154 | nda μM.

`C=CC(=O)N1CCN(c2nc(=O)n(-c3ncsc3C(C)C)c3nc(-c4c(O)cccc4F)c(Cl)cc23)[C@@H](C)C1` [Example 55-17, 6-chloro-7-(2-fluoro-6-hydroxyphenyl)-4-((2S)-2-methyl-4-(2-propenoyl)-1-piperazinyl)-1-(5-(2-propanyl)-1,3-thiazol-4-yl)pyrido[2,3-d]pyrimidin-2(1H)-one]: the pIC50 in experiment [1] was 6.91. Moreover, the “Coupled exchange IC50 (5 min)” value in experiment [2] was 0.18 | nda μM.

`C=CC(=O)N1CCN(c2nc(=O)n(-c3scnc3C(C)C)c3nc(-c4ccccc4F)c(Cl)cc23)[C@@H](C)C1` [Example 55-18, 6-chloro-7-(2-fluorophenyl)-4-((2S)-2-methyl-4-(2-propenoyl)-1-piperazinyl)-1-(4-(2-propanyl)-1,3-thiazol-5-yl)pyrido[2,3-d]pyrimidin-2(1H)-one]: the pIC50 in experiment [1] was 7.08. For the same molecule, the “Coupled exchange IC50 (5 min)” value in experiment [2] is 0.067 | nda μM.

Take `C=CC(=O)N1CCN(c2nc(=O)n(-c3ncsc3C(C)C)c3nc(-c4ccccc4F)c(Cl)cc23)[C@@H](C)C1` [Example 55-19, 6-chloro-7-(2-fluorophenyl)-4-((2S)-2-methyl-4-(2-propenoyl)-1-piperazinyl)-1-(5-(2-propanyl)-1,3-thiazol-4-yl)pyrido[2,3-d]pyrimidin-2(1H)-one]: the pIC50 in experiment [1] was 6.72. Moreover, the “Coupled exchange IC50 (5 min)” value in experiment [2] is 0.22 | nda μM.

Take `C=CC(=O)N1CCN(c2nc(=O)n(-c3cn(Cc4ccccc4)nc3C3CC3)c3nc(-c4c(O)cccc4F)c(Cl)cc23)[C@@H](C)C1` [Example 55-20, 1-(1-benzyl-3-cyclopropyl-1H-pyrazol-4-yl)-6-chloro-7-(2-fluoro-6-hydroxyphenyl)-4-((2S)-2-methyl-4-(2-propenoyl)-1-piperazinyl)pyrido[2,3-d]pyrimidin-2(1H)-one]: in experiment [1], the pIC50 was 5.57. The “Coupled exchange IC50 (5 min)” value in experiment [2] is given as 0.695 | nda μM.

Regarding `C=CC(=O)N1CCN(c2nc(=O)n(-c3c[nH]nc3C3CC3)c3nc(-c4c(O)cccc4F)c(Cl)cc23)[C@@H](C)C1` [Example 55-21, 6-chloro-1-(3-cyclopropyl-1H-pyrazol-4-yl)-7-(2-fluoro-6-hydroxyphenyl)-4-((2S)-2-methyl-4-(2-propenoyl)-1-piperazinyl)pyrido[2,3-d]pyrimidin-2(1H)-one], the pIC50 in experiment [1] was at most 5.00. In addition, in experiment [2], the “Coupled exchange IC50 (5 min)” value was 0.444 | nda μM.

`C=CC(=O)N1CCN(c2nc(=O)n(-c3c(CC)cncc3CC)c3nc(-c4ccccc4F)c(Cl)cc23)[C@@H](C)C1` [Example 55-22, 6-chloro-1-(3,5-diethyl-4-pyridinyl)-7-(2-fluorophenyl)-4-((2S)-2-methyl-4-(2-propenoyl)-1-piperazinyl)pyrido[2,3-d]pyrimidin-2(1H)-one]: in experiment [1], the pIC50 was 6.52. Moreover, the “Coupled exchange IC50 (5 min)” value in experiment [2] was 0.653 | nda μM.

On to `C=CC(=O)N1CCN(c2nc(=O)n(-c3nccnc3C(C)(C)C)c3nc(-c4c(O)cccc4F)c(Cl)cc23)[C@@H](C)C1` [Example 55-23], for which the pIC50 in experiment [1] was 6.59. Besides, the “Coupled exchange IC50 (5 min)” value in experiment [2] is listed as 0.208 | nda μM.

Take `C=CC(=O)N1CCN(c2nc(=O)n(-c3ncccc3C(=C)C)c3nc(-c4c(O)cccc4F)c(Cl)cc23)[C@@H](C)C1` [Example 55-24, 6-chloro-7-(2-fluoro-6-hydroxyphenyl)-4-((2S)-2-methyl-4-(2-propenoyl)-1-piperazinyl)-1-(3-(1-propen-2-yl)-2-pyridinyl)pyrido[2,3-d]pyrimidin-2(1H)-one]: the pIC50 in experiment [1] was 7.13. The “Coupled exchange IC50 (5 min)” value in experiment [2] is 0.113 | nda μM.

For the molecule `C=CC(=O)N1CCN(c2nc(=O)n(-c3c(O)cccc3C(C)C)c3nc(-c4ccccc4F)c(Cl)cc23)[C@@H](C)C1` [Example 55-26, 6-chloro-7-(2-fluorophenyl)-1-(2-hydroxy-6-(2-propanyl)phenyl)-4-((2S)-2-methyl-4-(2-propenoyl)-1-piperazinyl)pyrido[2,3-d]pyrimidin-2(1H)-one], the pIC50 in experiment [1] was 6.67. The “Coupled exchange IC50 (5 min)” value in experiment [2] is 0.091 | nda μM.

Take `C=CC(=O)N1CCN(c2nc(=O)n(-c3c(CC)ncnc3CC)c3nc(-c4c(O)cccc4F)c(Cl)cc23)[C@@H](C)C1` [Example 55-31, 6-chloro-1-(4,6-diethyl-5-pyrimidinyl)-7-(2-fluoro-6-hydroxyphenyl)-4-((2S)-2-methyl-4-(2-propenoyl)-1-piperazinyl)pyrido[2,3-d]pyrimidin-2(1H)-one]: the pIC50 in experiment [1] is 7.10. Further, in experiment [2], the “Coupled exchange IC50 (5 min)” value is 0.098 | nda μM.

On to `C=CC(=O)N1CCN(c2nc(=O)n(-c3c(CC)ncnc3CC)c3nc(-c4ccc(F)cc4F)c(Cl)cc23)[C@@H](C)C1` [Example 55-35, 6-chloro-1-(4,6-diethyl-5-pyrimidinyl)-7-(2,4-difluorophenyl)-4-((2S)-2-methyl-4-(2-propenoyl)-1-piperazinyl)pyrido[2,3-d]pyrimidin-2(1H)-one], for which the pIC50 in experiment [1] was 6.60. The “Coupled exchange IC50 (5 min)” value in experiment [2] was 0.225 | nda μM.

On to `C=CC(=O)N1CCN(c2nc(=O)n(-c3c(C(C)C)nc(OC)nc3C(C)C)c3nc(-c4ccccc4F)c(Cl)cc23)[C@@H](C)C1` [Example 55-37, 6-chloro-7-(2-fluorophenyl)-1-(2-methoxy-4,6-di(2-propanyl)-5-pyrimidinyl)-4-((2S)-2-methyl-4-(2-propenoyl)-1-piperazinyl)pyrido[2,3-d]pyrimidin-2(1H)-one], for which the pIC50 in experiment [1] was 7.24. Further, the “Coupled exchange IC50 (5 min)” value in experiment [2] was 0.03 | nda μM.

As for `C=CC(=O)N1CCN(c2nc(=O)n(-c3c(C)ncnc3C(C)C)c3nc(-c4cc(F)ccc4F)c(Cl)cc23)[C@@H](C)C1` [Example 55-39, 6-chloro-7-(2,5-difluorophenyl)-1-(4-methyl-6-(2-propanyl)-5-pyrimidinyl)-4-((2S)-2-methyl-4-(2-propenoyl)-1-piperazinyl)pyrido[2,3-d]pyrimidin-2(1H)-one], the pIC50 in experiment [1] was 6.57. Besides, the “Coupled exchange IC50 (5 min)” value in experiment [2] is reported as 0.292 | nda μM.

With `C=CC(=O)N1CCN(c2nc(=O)n(-c3c(C)ncnc3C(C)C)c3nc(-c4cc(C)ccc4F)c(Cl)cc23)[C@@H](C)C1` [Example 55-40, 6-chloro-7-(2-fluoro-5-methylphenyl)-1-(4-methyl-6-(2-propanyl)-5-pyrimidinyl)-4-((2S)-2-methyl-4-(2-propenoyl)-1-piperazinyl)pyrido[2,3-d]pyrimidin-2(1H)-one], the pIC50 in experiment [1] was 6.83. Further, in experiment [2], the “Coupled exchange IC50 (5 min)” value is reported as 0.1 | nda μM.

`C=CC(=O)N1CCN(c2nc(=O)n(-c3ncnn3C(C)C)c3nc(-c4ccccc4F)c(Cl)cc23)[C@@H](C)C1` [Example 55-41, 6-chloro-7-(2-fluorophenyl)-4-((2S)-2-methyl-4-(2-propenoyl)-1-piperazinyl)-1-(1-(2-propanyl)-1H-1,2,4-triazol-5-yl)pyrido[2,3-d]pyrimidin-2(1H)-one]: the negative logarithm of the IC50 (pIC50) in experiment [1] was 6.04. For the same molecule, the “Coupled exchange IC50 (5 min)” value in experiment [2] is on record as 0.292 | nda μM.
